Data on one compound can be found in patent US20240335395A1, “COMPOSITIONS AND METHODS FOR PREVENTING AND/OR TREATING DISEASE ASSOCIATED WITH IL-23 EXPRESSION” (ALLSPIM, priority 2021, published 2024).

One experiment deals with IL-23. The experiment can be described thus: IL-23 production (ELISA of supernatant) in LPS-stimulated THP-1 cell culture, Examples 1 and 8. It counts as cell-based, human. How it is done:
The THP-1 cell line (TIB-202) was obtained from the American Type Culture Collection (ATCC, USA), grown in RPMI 1640 culture medium (Gibco) supplemented with 10% fetal bovine serum (Gibco, UK), 50 U/mL penicillin-streptomycin (Gibco), and 0.05 mM 2-Mercaptoethanol (Gibco). Cultured cells were plated into culture plates in appropriate volumes with a cell density of 500,000 cells/mL.
PCR was performed in duplicate using SYBR Green qPCR master mix (Takara Biomedical Technology Co., Ltd, Dalian, China) on an ABI 7500 Real-Time PCR System (Thermo, USA). The cycling program was as follows: denaturation at 95° C. for 15 s, 40 cycles of 95° C. for 15 s and extension at 60° C. for 60 s, followed by melt curve generation. The ΔΔCT method was used to quantify relative mRNA levels as described in User Bulletin #2 for the ABI PRISM 7700 Sequence Detection System (Applied Biosystems, 2001). The primer sequences used in this study are 5′-[…]-3′ (forward), 5′-[…]-3′ (reverse) for human IL-23p19 (SEQ ID NOs: 4 and 5, respectively); and 5′-ACAGTCCATGCCATCACTG-3′ (forward) and 5′-AGTAGAGGCAGGGATGATG-3′ for human GAPDH as a reference (SEQ ID NOs: 6 and 7, respectively). 24 hours after culture and treatments, supernatants were collected and IL-23 levels measured using the IL-23 Human Uncoated ELISA Kit (ThermoFisher Scientific Inc., USA) according to the manufacturer's instructions. A Varioskan LUX microplate reader (Thermo Fisher, USA) was used for the assay and 4-parameter logistic regression was used for data analysis. Two duplicates per sample were performed and results were averaged.
The anti-IL-23 activity of 2,4-D was compared with the commercially prescribed nonsteroidal anti-inflammatory drugs (NSAIDs:[…], Ibuprofen, and Aspirin) in the LPS-stimulated THP-1 cell culture system described above (Example 1)).

A further experiment concerns IL-6. The experiment can be described thus: MSU-induced IL-6 in knee joint tissue (multiplex microassay). It counts as in vivo, mouse. The note with it: 2,4-D 100 mg/kg, CLC 1 mg/kg, DEX 0.5 mg/kg. How it is done:
Mice (six per group) were treated with 2,4-D (100 mg/kg or 20 mg/kg, i.p.), CLC (1 mg/kg or 0.2 mg/kg, i.p.), DEX (0.5 mg/kg or 0.1 mg/kg, i.p.), or vehicle (20% polyoxyethylenesorbitan monooleate (Tween 80) plus PBS) 30 min before intra-articular stimulus with MSU (100 μg/10 μL, i.a.). Six mice with intra-articular injection with PBS alone served as a negative control.
Induction of MSU-Induced Knee Joint Inflammation. Male ICR (CD-1) mice (35-45 g, 10-12 weeks) were purchased from VitalRiver Inc (Beijing, China) and were kept in an animal care facility under controlled temperature of 21±1° C., humidity, and on a light/dark cycle, with ad libitum access to water and standard laboratory chow diet. Animal care and handling procedures were approved by the Animal Ethics Committee of GZUCM (Guangzhou University of Chinese Medicine). All efforts were made to minimize animal suffering and to reduce the number of animals used. Joint inflammation was induced by the intra-articular (i.a.) administration of MSU (200 μg/20 μl) into the right and left knee joints of mice under inhaled 3% isoflurane anesthesia. Control animals received an injection (i.a.) of sterile PBS (20 μL).
Cytokine Measurement. Mice were anesthetized and sacrificed. Knee joints were collected and frozen in liquid nitrogen. Samples were then homogenized in 500 μl of buffer containing protease inhibitors, centrifuged (3600 rpm, 4° C., 15 min) and supernatants were used to determine Th1/Th2/Th17 cytokine levels using a multiplex microassay (Qantibody® mouse TH17 Array 1 kit, Cat. No.: QAM-TH17-1; RayBiotech, Norcross, GA). Results were expressed as picograms (pg) of cytokine/mg of tissue.
Statistical Analysis. […] For in vitro experiments, microassays were performed in quadruplicate. p<0.05 was considered significant (*p<0.05, **p<0.01, ***p<0.001).

Experiment [1] has as its system TPA-induced psoriasis-like skin hyperplasia. The experiment can be described thus: TPA-induced psoriasis-like skin hyperplasia in BALB/c mice. It counts as in vivo, mouse. As to the method:
Induction of TPA-induced psoriasis-like skin hyperplasia in mice treated with oral 2,4-D. Forty mice (BALB/c) were purchased from Guangdong Experimental Animal Center. All experiments were approved by the animal ethics committee of Guangzhou University of Chinese Medicine according to Chinese legislation on animal experiments. Mice (n=30) at 8 to 11 weeks of age received a daily topical dose of 15 μg TPA (Sigma) in 200 μl of acetone on the shaved back for day 1 and 4. This dose was empirically determined to cause the most optimal and reproducible skin inflammation in mice (data not shown). Control mice (n=10) were treated similarly with a control vehicle cream (Sigma). See FIG. 9 for an illustrative example of a mouse receiving topical TPA as compared to a control mouse receiving a control vehicle cream. Of the 30 mice that received topical TPA, 20 mice were treated orally with 0.2 mg (n=10) or 1 mg (n=10) 2,4-D daily until day 6. The remaining 10 untreated TPA mice served as a disease control. On day 7, dorsal skin was photographed and fixed in 10% formalin and stained with H&E (Haemotoxylin and Eosin). Epidermal thickness was quantified by Image J software.
Statistical analysis. Data are presented as the mean±SD for the in vivo animal study. Statistical analysis was performed using Student's t-test (paired 2-sample testing).

Take `COc1cc(O)c(OC)c(O)c1C(=O)/C=C/c1ccccc1` [2,4-D, 2′,4′-dihydroxy-3′,6′-dimethoxychalcone]: the “decrease of IL-23 detected in culture supernatant” value with IL-23 (LPS-stimulated THP-1, 24 h) was “more than 90%”. For the same compound, in the experiment on IL-23 (LPS-stimulated THP-1, Example 8), the “inhibition in IL-23 production/release in supernatant” value is reported as 5 to 10 fold. In addition, in the experiment on IL-23 (LPS-stimulated THP-1 cell culture), the “concentration of maximum inhibition of IL-23 cytokine production” value stood at 20 µg/mL. For the same compound, in the experiment with IL-6, the “decrease of IL-6 in knee joint tissue” value is on record as 7.6 fold. Moreover, in experiment [1] (0.2 mg daily oral), the “thickness of back skin compared with normal skin of control mice” value is “significantly higher” and the “thickness of back skin hyperplasia compared with untreated mice” value is “significantly lower”. Also, in experiment [1] (1 mg daily oral), the “thickness of back skin compared with normal skin of control mice” value is “similar” and the “thickness of back skin hyperplasia compared with untreated mice” value is on record as “significantly lower”. Also, the “dorsal skin compared to mice receiving TPA only” value in experiment [1] (0.2 or 1 mg daily oral) is reported as “improved in a dose-dependent manner”.
